Measured values from article PMC7026882, “Macrofilaricidal Benzimidazole–Benzoxaborole Hybrids as an Approach to the Treatment of River Blindness: Part 2. Ketone Linked Analogs” (ACS Infectious Diseases, 2019).
Like-named read-outs stand apart in the source and are kept apart here.

Tests used:
[1] = Tolerability of once daily dosing to gerbils over 7 days; assay type: in vivo
Source text: (§1) In addition, the concentrations achieved at these doses were well in excess of the O. volvulus IC50, a requirement for in vivo activity that we had hypothesized on the basis of earlier work in the amide-linked series.

O. volvulus = O. volvulus molting assay; assay type: cell-based; details: Onchocerca volvulus; molting assay
Source text: As summarized in Table 1, we were encouraged to find that the initial ketone analogs prepared, namely, 15 (6-linked) and 20 (5-linked), were quite active in an O. volvulus molting assay we used as a primary indicator of antiparasitic activity[30],[31] and were only weakly active in a G2/M arrest,[32] indicative of the interaction with mammalian tubulin. As described above, our hypothesis was to reduce Pgp efflux liability through elimination of the hydrogen-bond donor associated with the N–H of the amide linker, as this has been shown in the literature to be a contributor to recognition by Pgp.[33],[34] […] We were disappointed to find that the 5-linked analog 22 was poorly selective and the 6-linked analog 23 was only weakly active. […]
(§2) in comparison to the number of control larvae that had successfully molted. IC50 values were calculated using GraphPad Prism v6.0 (http://www.graphpad.com). See Bullman et al., PLoS
(§3) Negl. Trop. Dis., 2015, 9, e3534 for further details.
(§4) Adult Brugia malayi in vivo model procedure.
(§5) Gerbils (Meriones unguiculatus) were infected by transplantation of 10 male and 10 female adult Brugia malayi into the peritoneal cavity. Gerbils were acclimated for 7 days prior to treatment. Animals were dosed based on their body weight prior to each dosing. Animals were administered their doses at the same time each day and receive standard rodent laboratory diet and water ad libitum. Gerbils were humanely euthanized at the conclusion of each study.
(§6) Peritoneal counts of male and female adult B. malayi and visual condition of the peritoneum […]
(§7) L3 Brugia pahangi in vivo model procedure.
(§8) Male gerbils (Meriones unguiculatus) approximately 6 weeks of age (50-60 g) were purchased from Charles Rivers (USA, Kingston K62 Gerbils) and infected by intraperitoneal injection with 200 Brugia pahangi third-stage larvae (L3) per animal (Filariatech, Inc., Athens, GA). Gerbils were housed with no more than 5 animals per cage and maintained 9 months prior to treatment. All gerbils were dosed in accordance with their body weight determined prior to each dosing. Animals were administered their doses at the same time each day and are allowed to feed and drink ad libitum. Gerbils were euthanized following approved institutional protocols. Euthanized animals were weighed and examined for external and visceral pathologies. The adult Brugia worms were recovered by opening the body cavity and washing the peritoneal cavity with 100 mL of phosphate buffered saline. Male and female worms were counted using a dissecting microscope.
(§9) Litomosoides sigmodontis in vivo model procedure. 2
(§10) All animal experiments with L. sigmodontis were conducted at the Institute for Medical Microbiology, Immunology and Parasitology (IMMIP), University Hospital of Bonn, in accordance to the European Union animal welfare guidelines. All protocols were approved by the local authorities (Landesamt für Natur, Umwelt und Verbraucherschutz, Cologne, Germany (AZ 84- […]
(§11) Janvier (Saint-Berthevin, France) and were housed at the animal facility of the IMMIP in individually ventilated cages on a 12h light/dark cycle with food and water ad libidum. Mice were infected at 6-8 weeks of age via exposure to the natural mite vector Ornithonyssus bacoti

[2] = Metabolite ID studies, in vitro and in vivo; assay type: in vitro ADME; details: in vitro or in vivo experiments
Source text: However, the metabolism of flubendazole by the reduction of the ketone leads to short-lived clastogenic metabolites at low levels that may pose a minimal risk.[28]

MDCK-MDR1 cell monolayer = MDCK-MDR1 cell monolayer permeability assay; assay type: in vitro ADME
Source text: (§12) As summarized in Table 1, we were encouraged to find that the initial ketone analogs prepared, namely, 15 (6-linked) and 20 (5-linked), were quite active in an O. volvulus molting assay we used as a primary indicator of antiparasitic activity[30],[31] and were only weakly active in a G2/M arrest,[32] indicative of the interaction with mammalian tubulin. As described above, our hypothesis was to reduce Pgp efflux liability through elimination of the hydrogen-bond donor associated with the N–H of the amide linker, as this has been shown in the literature to be a contributor to recognition by Pgp.[33],[34] […] We were disappointed to find that the 5-linked analog 22 was poorly selective and the 6-linked analog 23 was only weakly active.

[3] = MDCK-MDR1 cell monolayer permeability assay; assay type: in vitro ADME; details: dog
Source text: as §12

[4] = Pharmacokinetics in Mongolian gerbils; assay type: in vivo
Source text: as §1

[5] = test system: mammalian tubulin (G2/M arrest); assay: G2/M arrest assay, indicative of interaction with mammalian tubulin; assay type: cell-based
Source text: as §12

Brugia pahangi = assay: In vivo efficacy in the L3 Brugia pahangi gerbil model; details: for Number of Worms Recovered, Avg Female Worms / Number of Worms Recovered, Avg Male Worms: PO, 100 mg/kg, recovery day 63
Description: For our in vivo model, gerbils were infected by injecting B. pahangi third-stage larvae (L3) that were subsequently allowed to develop to adult worms over several months. Once stable infections had been established, 21 was administered as a suspension via once-daily oral gavage at a dose of 100 mg/kg for 7, 14, or 28 days. All animals were maintained until day 63 after the start of dosing, at which time adult worms were recovered from the peritoneal cavity and microfilariae were quantified in blood samples. Flubendazole (5 mg/kg, SC × 5 days) was included as a positive control in this study. […]
as §2, §3, §4, §5, §6, §7, §8, §9, §10, §11

[6] = Metabolic stability (Clint) in human microsomes; assay type: in vitro ADME
Source text: as §12

Structure (SMILES): COC(=O)Nc1nc2ccc(C(=O)c3cccc4c3B(O)OC4)cc2[nH]1 [compound 21]
- tolerability [1]: well tolerated
- IC50 (O. volvulus): 100 nM
- metabolism in metabolite ID studies [2]: have not observed a significant metabolism
- MDCK-MDR1 Papp (A-B) (MDCK-MDR1 cell monolayer): 56.6 ×10⁻⁶ cm/s
- Papp [3]: 56.6 ×10⁻⁶ cm/s
- CLint scaled ([4]; Mongolian gerbil, blood, 2 mg/kg, Table 3, IV, dose 2): 4.82 mL/min/kg
- AUC0-last ([4]; Table 3, IV, dose 2): 5950 ng·h/mL
- Cmax ([4]; Table 3, IV, dose 2): 1560 ng/mL
- AUC0-last ([4]; Table 3, PO, dose 10): 61700 ng·h/mL
- Cmax ([4]; Table 3, PO, dose 10): 5750 ng/mL
- AUC(0-t) ([4]; blood, 2 mg/kg, Mongolian gerbils, dose 2, IV, read-out: AUC0–24): 5950 ng·h/mL
- Cmax ([4]; blood, 2 mg/kg, Mongolian gerbils, dose 2, IV, read-out: Cmax): 1560 ng/mL
- Vd ([4]; blood, 2 mg/kg, Table 3, IV, dose 2, read-out: Vdss): 3.19 L/kg
- AUC(0-t) ([4]; blood, 10 mg/kg, Mongolian gerbils, dose 10, PO, read-out: AUC0–24): 61700 ng·h/mL
- Cmax ([4]; blood, 10 mg/kg, Mongolian gerbils, dose 10, PO, read-out: Cmax): 5750 ng/mL
- AUC(0-t) ([4]; blood, 10 mg/kg, Table 3, SC, dose 10, read-out: AUC0-last): 35700 ng·h/mL
- Cmax ([4]; blood, 10 mg/kg, Table 3, SC, dose 10, read-out: Cmax): 3130 ng/mL
- AUC(0-t) ([4]; blood, 30 mg/kg, Table 3, PO, dose 30, read-out: AUC0-last): 196000 ng·h/mL
- Cmax ([4]; blood, 30 mg/kg, Table 3, PO, dose 30, read-out: Cmax): 17200 ng/mL
- AUC(0-t) ([4]; blood, 60 mg/kg, Table 3, PO, dose 60, read-out: AUC0-last): 361000 ng·h/mL
- Cmax ([4]; blood, 60 mg/kg, Table 3, PO, dose 60, read-out: Cmax): 26300 ng/mL
- AUC(0-t) ([4]; blood, 100 mg/kg, Table 3, PO, dose 100, read-out: AUC0-last): 479000 ng·h/mL
- Cmax ([4]; blood, 100 mg/kg, Table 3, PO, dose 100, read-out: Cmax): 34500 ng/mL
- bioavailability ([4]; blood, po, 10 mg/kg, Mongolian gerbils, dose 10, PO, read-out: bioavailability (%F)): ~100%
- bioavailability ([4]; blood, po, 10 mg/kg, Table 3, PO, dose 10, read-out: %F): 100%
- bioavailability ([4]; blood, sc, 10 mg/kg, Table 3, SC, dose 10, read-out: %F): 100%
- accumulation of the compound ([4]; once daily dosing to gerbils over 7 days): no accumulation
- dose proportionality of exposure ([4]; oral dosing to gerbils, up to 100 mg/kg): dose proportional
- IC50 [5]: > 38000 nM
- effective in killing female worms (Brugia pahangi; 100 mg/kg PO once daily for 14 days): 99%
- effective in killing female worms (Brugia pahangi; 100 mg/kg PO once daily for 28 days): 99%
- effect on worms (Brugia pahangi; 100 mg/kg PO once daily for only 7 days): very little effect
- Number of Worms Recovered, Avg Female Worms (Brugia pahangi; 7 days, QD): 13.0
- Number of Worms Recovered, Avg Male Worms (Brugia pahangi; 7 days, QD): 25.2
- Number of Worms Recovered, Avg Female Worms (Brugia pahangi; 14 days, QD): 0.6
- Number of Worms Recovered, Avg Male Worms (Brugia pahangi; 14 days, QD): 11.4
- Number of Worms Recovered, Avg Female Worms (Brugia pahangi; 28 days QD): 0.1
- Number of Worms Recovered, Avg Male Worms (Brugia pahangi; 28 days QD): 11.1
- microsomal CLint [6]: 5.9 µL/min/mg
